In PubChem BioAssay (NCI) one finds GI50 and TGI data, which are given here for 8 compounds.

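96-well plates; 48 h exposure; 5 concentrations. Endpoints by linear interpolation between flanking doses. Not reached: highest tested concentration assigned. Abbreviation: GI50, concentration required for 50% inhibition of growth. TGI denotes the concentration required for complete inhibition of growth.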

Common to all, as to assay: NCI-60 cell line screen, 48 h
Assay [1] concerns MALME-3M melanoma.
For assay [2], the system named is HS 578T breast.
The test system of assay [3] is RXF 393 renal.
The subject of assay [4] is SNB-75 CNS.
The subject of assay [5] is MCF7 breast.
The subject of assay [6] is PC-3 prostate.
For assay [7], the system named is SW-620 colon.
Assay [8] concerns OVCAR-5 ovarian.
Assay [9] deals with 786-0 renal.
Assay [10] has as its system A549 NSCLC.

In the case of `COC(=O)C(Cc1ccccc1)NC(=O)NC(=O)NC(=O)CI` (stereo not given), the GI50 in assay [1] was 1.55 µM; in [2] it was 34.3 µM; in [3], 7.75 µM; in assay [4], 16.2 µM; in assay [5], 4.2 µM; in assay [6], 17.3 µM. The GI50 in assay [7] was 5.95 µM; in assay [8], 13 µM; in assay [9] it was 3.35 µM; in [10] it was 20.2 µM. Moreover, the TGI is 3.34 µM in [1]; more than 100 µM in assay [2]; 20.2 µM in [3]; 36.7 µM in assay [4]; 28.5 µM in assay [5]; 33.1 µM in assay [6]. The TGI in assay [7] stood at 21.7 µM; in [8] it was 29.7 µM; in assay [9], 10.9 µM; in assay [10], 38.9 µM.
`CC(=O)NC1=C(OS(=O)(=O)c2ccc(C)cc2)CN(C)C1=O`: the TGI in assay [1] is 6.21 µM; in assay [2], more than 42.2 µM; in [3], 13.3 µM; in assay [4], 15.1 µM; in assay [5] it was 11.7 µM; in assay [6] it was 10.1 µM. Moreover, the TGI in assay [7] is more than 37.3 µM; in assay [8], 32 µM; in assay [9] it was 16.5 µM; in assay [10], 15.3 µM.
On to `COc1cccc(NC(=O)c2sc3nc4c(cc3c2N)CN(Cc2ccccc2)CC4)c1`, for which the GI50 in assay [1] was 1.43 µM; in assay [2], 2.14 µM; in assay [3], 2.71 µM; in assay [4] it was 1.73 µM; in [5], 0.62 µM; in assay [6], 11.6 µM. For the same compound, the GI50 in assay [7] is 1.85 µM; in assay [8], 36.9 µM; in assay [9] it was 3.61 µM; in [10] it was 3.79 µM. Besides, the TGI in assay [1] is 16.6 µM; in assay [2], 23 µM; in assay [3], 12.9 µM; in assay [4], 4.71 µM; in [5] it was more than 100 µM; in [6], 91.1 µM. Further, the TGI in assay [7] was 72.2 µM; in [8], more than 100 µM; in [9], 20.8 µM; in [10], 53.8 µM.
In the case of `COC(=O)Cn1c2c(c3c(O)cccc31)C(=O)c1ccccc1-2`, the GI50 in assay [1], in assay [2], in [3], in assay [4], in assay [5] and in [6] was more than 100 µM each time. Moreover, the GI50 in assay [7], in assay [8], in assay [9] and in assay [10] was more than 100 µM each time. The TGI in [1], in assay [2], in assay [3], in [4], in assay [5] and in [6] was more than 100 µM each time. Also, the TGI in assay [7], in [8], in assay [9] and in assay [10] was more than 100 µM each time.
As to `CCN1CCC(CCOC)(CN2c3ccccc3Sc3ccc(Cl)cc32)C1` (stereo not given), the GI50 is 1.91 µM in [1]; 2.12 µM in [2]; 1.77 µM in [3]; 2.25 µM in assay [4]; 1.86 µM in assay [5]; 2.03 µM in [6]. The GI50 is 1.7 µM in [7], 1.83 µM in assay [8], 1.81 µM in assay [9] and 1.9 µM in [10]. Further, the TGI in [1] turned out to be 3.6 µM; in [2], 6.55 µM; in [3], 4.03 µM; in [4], 5.8 µM; in assay [5], 3.54 µM; in [6], 4.74 µM. For the same compound, the TGI in assay [7] came out at 3.24 µM; in assay [8], 3.88 µM; in assay [9], 3.39 µM; in assay [10], 3.56 µM.
`C=CC(=O)N1CCN(c2ccc3cccc(NC(=O)c4cnc(C)cn4)c3n2)CC1`: the GI50 in assay [1] was 2.89 µM; in assay [2], 2.28 µM; in assay [3], 1.45 µM; in [4], 0.565 µM; in assay [5], 3.44 µM; in [6], 2.86 µM. In addition, the GI50 is 4.85 µM in assay [7], 16.5 µM in assay [8], 1.77 µM in assay [9] and 3.77 µM in assay [10]. For the same compound, the TGI is 15.9 µM in [1]; 26.3 µM in assay [2]; 9.46 µM in assay [3]; 9.66 µM in [4]; more than 100 µM in [5]; 26.5 µM in assay [6]. The TGI in assay [7] is 34.9 µM; in assay [8], 81.7 µM; in assay [9] it was more than 100 µM; in assay [10] it was more than 100 µM.
Take `O=[N+]([O-])c1cccc(-c2nc3sccn3c2-c2ccnc(NCCCNS(=O)(=O)c3cccc(F)c3)n2)c1`: the GI50 in assay [1] is 2.14 µM; in assay [2], 4.73 µM; in [3] it was 8.13 µM; in assay [4], 1.52 µM; in assay [5], 2.16 µM; in assay [6], 1.37 µM. For the same compound, the GI50 in assay [7] is 4.12 µM; in assay [8], 7.83 µM; in assay [9], 7.97 µM; in assay [10], 2.68 µM. Further, the TGI in [1] was 7.06 µM; in assay [2] it was 47.3 µM; in assay [3], 41.6 µM; in assay [4], 4.24 µM; in assay [5] it was 8.48 µM; in [6], 6.62 µM. Also, the TGI was more than 100 µM in assay [7], more than 100 µM in assay [8], 45.6 µM in assay [9] and 24.3 µM in assay [10].
For the compound `CN(C)CCCN1c2ccccc2CCc2ccc(Cl)cc21`, the GI50 in [1] is 2.03 µM; in [2], 10.6 µM; in [3], 2 µM; in assay [4], 1.7 µM; in [5], 1.76 µM; in [6], 2.98 µM. Further, the GI50 is 3.92 µM in [7], 4.07 µM in [8], 5.5 µM in assay [9] and 9.27 µM in [10]. Moreover, the TGI in assay [1] was 3.99 µM; in assay [2] it was 77.1 µM; in assay [3], 7.66 µM; in assay [4] it was 8.77 µM; in [5], 3.66 µM; in [6] it was 15.4 µM. The TGI is 16 µM in assay [7], 16.2 µM in assay [8], 19.2 µM in assay [9] and 23.2 µM in assay [10].
